Five molecules from patent US8148431B2, “Osteogenesis promoter containing β-cryptoxanthin as the active ingredient” (Kemin Health, L.C., priority 2002, dated 2012) can be followed below.

What all share (assay type): cell-based, Wistar male rats
For assay [1], the system named is diaphysis tissue of the femur (cortical bone). Briefly: Bone calcium level in cultured femoral diaphysis tissue pieces. The note with it: diaphysis tissue; for Bone calcium level: mean ± SE; for Significant effect on increasing calcium level in the bone tissue (in words): Table 3 concentrations. On the procedure:
(§1) The femurs were extracted from rats (Wistar male rats; 4 to 5 weeks old) (purchased from Japan SLC Co., Ltd. and fed with solid Oriental yeast (MF)) under anesthesia with ether under a germfree condition. The femurs were each washed with 0.25 M sucrose solution, and then divided into the diaphysis (cortical bone) and metaphysis (cancellous bone). The bone tissue pieces were cultured in a culture medium (Dulbecco's modified culture medium containing 5% of glucose; serum-free medium) containing. β-cryptoxanthin, etc. at […] in an incubator filled with 5% CO2-95% air for 48 hours. β-cryptoxanthin used was “β-cryptoxanthin” of Extrasynthase Co., cycloheximide used was “Cycloheximide” of Sigma Co. Ltd., β-carotene was “β-carotene” of Sigma ? , xanthine was “Xanthine” of Sigma Co, Ltd., parathormone was “Parathormone” of Sigma Co. Ltd. and prostaglandin E2 was “Prostaglandin E2” of Sigma Co. Ltd. In the control, only the culture medium was used without β-cryptoxanthin or the like.
(§2) Bone calcium level in the bone tissue was determined. After the culture in the incubator, the tissue pieces were washed with 0.25 M sucrose solution and dried and then the bone was weighed. Then concentrated nitric acid was added to the tissue pieces. After the incineration at 120° C. for 12 hours, the bone calcium level was determined with an atomic absorption photometer (“Perkin-Elmer 303” of Perkin-Elmer Co.).
(§3) The bone component-increasing effect of β-cryptoxanthin was examined. The diaphysis and metaphysis tissue of the femur was cultured in the above-described culture medium containing β-cryptoxanthin (10^−5 to 10^−5 M) for 48 hours. Calcium level in the bone tissue, alkaline phosphatase activity (enzyme for accelerating the bone calcification) and the amount of deoxyribonucleic acid (DNA; index of number of cells in the bone tissue) were determined by the same methods as in Example 1. In each test group, the determination vas conducted 6 to 8 times and the results were represented by the average value and the standard error. The significant difference was determined by Student's t-test. The result was compared with that of the control. When P value was not higher than 0.01 (**) or not higher than 0.05 (*), the results were statistically significant.

Assay [2] relates to metaphysis tissue of the femur (cancellous bone). Briefly: Bone calcium level in cultured femoral metaphysis tissue pieces. The note with it: metaphysis tissue; for Bone calcium level: mean ± SE; for Significant effect on increasing calcium level in the bone tissue (in words): Table 3 concentrations. On the procedure:
as §1, §2
as §3, with “The diaphysis and metaphysis tissue of the femur was cultured in the above-described culture medium containing β-cryptoxanthin (10^−5 to 10^−5 M) for 48 hours.” left out

The test system of assay [3] is diaphysis tissue of the femur (cortical bone). Briefly: Bone alkaline phosphatase activity in cultured femoral diaphysis tissue pieces. Conditions: Table 2 (protein synthesis inhibitor experiment), diaphysis tissue, 10^−6 M (each agent), mean ± SE, n=6. On the procedure:
as §1
(§4) The expression level of alkaline phosphatase, which is the most important enzyme for the acceleration of the calcification of bones, was examined. The tissue pieces cultured in the incubator were washed in 0.25 M sucrose solution, then pulverized in 3 ml of 65 mM barbital buffer (pH 7-4) and treated with ultrasonic waves. The resultant liquid was centrifuged. The supernatant, as the enzyme solution, was determined by a method of Walter ad Schutt in Method of Enzymatic Analysis, Vol. 1-2, p. 856, Academic Press, New York, 1965). Namely, this method was carried out as follows: p-nitrophenylphosphoric acid was used as the substrate. 0.05 ml of the enzyme solution was added to 2 ml of diethanolamine buffer (pH 9.8). After the incubation at 37° C. for 30 minutes, 10 ml of 0.05 N NaOH was added to the mixture. The absorbance (405 nm) was determined with a spectrophotometer to determine bone alkaline phosphatase activity of a bone remedy or a compound known to be effective for the bones.
as §3

Assay [4] has as its system metaphysis tissue of the femur (cancellous bone). Briefly: Bone alkaline phosphatase activity in cultured femoral metaphysis tissue pieces. Conditions: Table 2 (protein synthesis inhibitor experiment), metaphysis tissue, 10^−6 M (each agent), mean ± SE, n=6. On the procedure: as §1, §4, §3
Assay [5] has as its system diaphysis tissue of the femur (cortical bone). Briefly: Bone DNA level in cultured femoral diaphysis tissue pieces. The note with it: Table 2 (protein synthesis inhibitor experiment), diaphysis tissue, 10^−6 M (each agent), mean ± SE, n=6. On the procedure:
as §1
(§5) DNA level was determined as an index of the number of cells in the bone tissue. After the culture in an incubator, the tissue pieces were washed with 0.25 M sucrose solution and then the wet weight of them was determined. They were pulverized in 4 ml of 0.1 N NaOH. After the osmosis at 4° C. for 24 hours, the liquid mixture was centrifuged. The supernatant was taken as the sample and determined by a method of Ceriotti et al. (J. Biol. Chem., 241; 34-77, 1951). Namely, 1 ml of concentrated hydrochloric acid and 1 ml of 0.04% indole solution were added to 2 ml of the sample and then the resultant mixture was heated to 100° C. in boiling water. After quenching followed by the extraction with 4 ml of chloroform, the chloroform layer was taken to determine bone DNA level with a spectrophotometer (490 nm).
as §3

The test system of assay [6] is metaphysis tissue of the femur (cancellous bone). Briefly: Bone DNA level in cultured femoral metaphysis tissue pieces. The note with it: Table 2 (protein synthesis inhibitor experiment), metaphysis tissue, 10^−6 M (each agent), mean ± SE, n=6. On the procedure:
as §1, §5, §3

In assay [7] the test system is diaphysis tissue of the femur. Briefly: Bone resorption (PTH or prostaglandin E2): bone calcium level in cultured diaphysis tissue. On the procedure:
as §1, §2
(§6) The bone mineral dissolution-inhibiting effect of β-cryptoxanthin was examined. […] PTH also has a pathophysiologic role on the expression of osteoporosis caused by the aging. It is known that prostaglandin E2 also causes physiologic bone mineral dissolution. The diaphysis or metaphysis tissue of the femur was cultured in the presence of 10^−7 M PTH or 10^−5 M prostaglandin E2 for 48 hours and then calcium level in the bone tissue was determined. In another experiment, the culture was conducted in the same manner as that described above in the coexistence of them and β-cryptoxanthin (10^−8 M to 10^−6 M) and then calcium level in the bone tissue was determined. In each test group, the determination was conducted 6 to 8 times and the results were represented by the average value and the standard error. The significant difference was determined by Student's t-test. The result was compared with that of the control. When P value was not higher than 0.01 (*) as compared with the control or it is not higher than 0.1 (#) as compared with that of prostaglandin E2, the results were statistically significant.

Assay [8] has as its system metaphysis tissue of the femur. Briefly: Bone resorption (PTH or prostaglandin E2): bone calcium level in cultured metaphysis tissue. On the procedure: as §1, §2, §6
[9] abbreviates: Table 2 (protein synthesis inhibitor experiment), 10^−6 M (each agent), n=6.
The mark [10] stands for this setting: Comparative Example (Table 3), 10^−6 M, 48 h culture.
Where [11] appears, read: Comparative Example (Table 3), 10^−7 M, 48 h culture.
Setting [12] is: 10^−7 M PTH, 48 h culture, vs control.

Marks after values point to notes of the source that are not given here.

Regarding `C[C@@H]1C[C@@H]([C@H](O)CC2CC(=O)NC(=O)C2)C(=O)[C@@H](C)C1` [Cycloheximide, reference compound], the Bone calcium level in assay [1] (setting [9]) amounted to 204.0 ± 15.59 mg/g dry weight; in assay [2] (setting [9]) it was 156.4 ± 2.81 mg/g dry weight. For the same molecule, the “Bone alkaline phosphatase activity” value in assay [3] came to 534.5 ± 64.2 nmol/min/mg protein; in assay [4] it was 948.8 ± 21.1 nmol/min/mg protein. Also, the results for the “Bone DNA level” value in assay [5] and in assay [6] were 1.299 ± 0.127 mg/g bone wet weight and 3.001 ± 0.454 mg/g bone wet weight, respectively.

Turning to `CCCCC[C@H](O)/C=C/[C@H]1[C@H](O)CC(=O)[C@@H]1C/C=C\CCCC(=O)O` [Prostaglandin E2, reference compound], the “Effect of prostaglandin E2 on calcium level in the bone tissue (in words)” value in assay [7] (diaphysis tissue, prostaglandin E2 10^−5 M) is reported as “significant reduction”; in assay [8] (metaphysis tissue, prostaglandin E2 10^−5 M), “significant reduction”. Besides, the Bone calcium level in assay [7] (diaphysis tissue, prostaglandin E2 10^−5 M alone, 48 h culture) is recorded as 182.8 ± 4.06* mg/g dry weight; in assay [8] (metaphysis tissue, prostaglandin E2 10^−6 M alone, 48 h culture) it was 163.5 ± 1.47* mg/g dry weight.

For the molecule `Oc1nc(O)c2[nH]cnc2n1` [Xanthine, 2,6-dihydroxypurine, reference compound], the Bone calcium level in assay [1] (setting [10]) stood at 240.2 ± 8.46 mg/g dry weight; in assay [1] (setting [11]) it was 228.6 ± 7.08 mg/g dry weight; in assay [2] (setting [10]), 188.2 ± 3.34 mg/g dry weight; in assay [2] (setting [11]) it was 189.8 ± 3.30 mg/g dry weight. In addition, the “Significant effect on increasing calcium level in the bone tissue (in words)” value in assay [1] (48 h culture) and in assay [2] (48 h culture) was “could not be obtained” each time.

Regarding `CC1=C(/C=C/C(C)=C/C=C/C(C)=C/C=C/C=C(C)/C=C/C=C(C)/C=C/C2=C(C)CCCC2(C)C)C(C)(C)CCC1` [β-carotene, reference compound], the Bone calcium level in assay [1] (setting [10]) came out at 215.6 ± 2.78 mg/g dry weight; in assay [1] (setting [11]), 232.2 ± 6.66 mg/g dry weight; in assay [2] (setting [10]), 189.4 ± 8.06 mg/g dry weight; in assay [2] (setting [11]), 195.4 ± 10.10 mg/g dry weight. Moreover, the “Significant effect on increasing calcium level in the bone tissue (in words)” value in assay [1] (48 h culture) and in assay [2] (48 h culture) was “could not be obtained” throughout.

B1: Parathyroid hormone: peptide hormone secreted from the accessory thyroid, causes bone mineral dissolution (bone resorption); “Parathormone” of Sigma (peptide, UniProt P01270 32-115, looked up)
Parathyroid hormone: SVSEIQLMHNLGKHLNSMERVEWLRKKLQDVHNFVALGAPLAPRDAGSQRPRKKEDNVLVESHEKSLGEADKADVNVLTKAKSQ
modifications: Parathyroid hormone
notes: peptide hormone secreted from the accessory thyroid, causes bone mineral dissolution (bone resorption); “Parathormone” of Sigma
B1: the “Effect of PTH on calcium level in the diaphysis tissue (in words)” value in assay [7] (setting [12]) is “significantly reduced”. In addition, the Bone calcium level in assay [7] (diaphysis tissue, parathyroid hormone 10^−7 M alone, 48 h culture) is 180.0 ± 3.23* mg/g dry weight; in assay [8] (metaphysis tissue, parathyroid hormone 10^−7 M alone, 48 h culture), 167.0 ± 0.96* mg/g dry weight. The “Effect of PTH on calcium level in the metaphysis tissue (in words)” value in assay [8] (setting [12]) was “significantly reduced”.
